From US10131558B1, “Compositions, methods, and/or systems for managing sulfide” (priority 2016, dated 2018)
Where two headings read alike, the source gives them in different places. Each block holds one molecule with its values, some of them ahead of it.

What was measured:
[1] = Treatment of sulfides in municipal wastewater using ferric chelants and ozone; conditions: ozone ~13.4 ppm, 4 ppm ferric chelant where used; for sulfide remaining: start 13.70
Description: The raw wastewater received a dose of 4 ppm of each of the four ferric chelants (mass calculated as chelant) just prior to addition of ozone.
Ozone addition was accomplished using an ozone generator from Ozone Solutions, Sioux Center, Iowa. The generator was capable of generating up to 2 grams per hour of ozone. Injection of ozone into the wastewater was accomplished using an injection system from Ozone Solutions called the H2O-Mini. The unit is designed to treat from 1.5 to 5.7 liters per minute of wastewater. The unit was set up to deliver 6.7 mg/minute of dissolved ozone (assumed the 80% efficiency of dissolution noted by the manufacturer) to wastewater passing the injection nozzle within the H2O-mini. Each test was designed for maximum wastewater flow through the H2O-mini (5.7 liters/min).
An objective of the study will be to treat most, but not all, of the sulfide present within the individual test samples in order to determine which treatment was more efficient than the others.
Samples were taken over twenty minutes of contact time from the recirculation vessel after ozonation. For each of the four ferric chelant studies, chelants were added to the wastewater recirculation vessels just prior to starting the injection of ozone and recirculation of the liquids. The injection of ozone was applied over the prescribed period and sampled as before in the ozone only experiment.

[2] = Treatment of sulfides in municipal wastewater using ferric chelants and hydrogen peroxide; conditions: 20 ppm chelant and 105.8 ppm hydrogen peroxide
[3] = system: total heterotrophic bacteria; test: Disinfection of wastewater using chelated iron compounds; type: cell-based; conditions: 30 min, raw average 18,188 CFUs; for Test 3 CFUs/ml 12 ppm Fe-Chelant: chelant alone, no H2O2
Method: The clarified supernatant was then pored off of the top of the settled solids within the sample. The supernatant was then mixed and four samples were collected to determine untreated heterotrophic bacteria counts. […] were dissolved in distilled water at 0.4334M. Ferric chloride was added in amounts to achieve saturation of chelant sites on the respective chelants. […] Twenty individual liter samples of supernatant were then decanted from the well-mixed wastewater sample for testing. Four chelated iron products with peroxide were tested at two test concentrations and compared to samples receiving peroxide only and iron chelate only. […] Samples were then decanted to sterile sample containers containing sodium thiosulfate to stop the oxidation process and preserve the sample. Samples were then placed in a refrigerator until all samples were finished. Samples were packaged in a standard cooler with ice packs and sent via overnite delivery to ProChem Labs in Lynchburg, Va. for analysis for total heterotrophic bacteria counts.

[4] = cited from earlier work
[5] = Anaerobic sulfide treatment: pure oxygen versus pure oxygen + ferric MGDA and nitrate; conditions: for Sulfide: control 33, 10 cc pure oxygen, ~0.1 ml ~0.03 M Fe MGDA with ~8.75 mg nitrate where used
Description: Three 300 milliliter Supelco test flasks were utilized for conducting the testing. Each flask had two valves and a single port for a septum to inject chemistry into the vessel. Each test flask was completely filled to zero headspace with wastewater from a municipal wastewater treatment facility that had been spiked with sodium sulfide. […] Test flasks were left at room temperature for two hours to assure that any oxygen within the wastewater in the test flasks was consumed prior to the study so as to mimic anaerobic wastewater conditions to initiate the study. […] Oxygen was injected simultaneously with a slight opening of a valve on the cylinder so that wastewater could could be displaced by the incoming volume of oxygen. […] The control sample flask received no injection of any ingredients. After injection of ingredients into each test flask, the flasks were placed on a New Brunswick Shaker Table and shaken for variable periods of time at ˜200 rpm's. After each test period flasks were removed and a sample extracted for sulfide testing using a La Motte Sulfide Color Comparison Test Kit. Sample for the control was taken at time zero for each study.

[6] = Anaerobic sulfide treatment: pure oxygen versus pure oxygen + ferric MGDA; conditions: 10 cc pure oxygen, ~0.1 ml ~0.03 M Fe MGDA where used
[7] = Nitrate addition to sewage, lab jar tests and sewage collection system test

Structure (SMILES): O=C([O-])CN(CCN(CC(=O)[O-])CC(=O)[O-])CC(=O)[O-].[Fe+3] [Fe-EDTA]
- Overall total percentage of sulfide reduction [1]: 64%
- Overall total percentage of sulfide reduction ([1]; listed as ferric EDTA): 64%
- sulfide remaining ([1]; 5 min contact): 6.20 ppm
- sulfide remaining ([1]; 10 min contact): 5.10 ppm
- sulfide remaining ([1]; 20 min contact): 4.90 ppm
- sulfide reduction after 15 minutes [2]: 60%
- Test 1 CFUs/ml 19.8 ppm H2O2 6 ppm Fe-Chelant [3]: 360 CFUs/ml
- Test 2 CFUs/ml 39.6 ppm H2O2 12 ppm Fe-Chelant [3]: 59 CFUs/ml
- Test 3 CFUs/ml 12 ppm Fe-Chelant [3]: 18,200 CFUs/ml

- sulfide remaining ([1]; 5 min contact): 6.80 ppm
- sulfide remaining ([1]; 10 min contact): 6.00 ppm
- sulfide remaining ([1]; 20 min contact): 5.40 ppm
Structure (SMILES): O=C([O-])CN(CCO)CC(=O)[O-].[Fe+3] [Fe-HEIDA]
- Overall total percentage of sulfide reduction [1]: 60%
- Overall total percentage of sulfide reduction ([1]; listed as ferric HEIDA): 60%
- Test 1 CFUs/ml 19.8 ppm H2O2 6 ppm Fe-Chelant [3]: 1350 CFUs/ml
- Test 2 CFUs/ml 39.6 ppm H2O2 12 ppm Fe-Chelant [3]: 84 CFUs/ml
- Test 3 CFUs/ml 12 ppm Fe-Chelant [3]: 16,700 CFUs/ml

Structure (SMILES): O=C([O-])CN(CC(=O)[O-])CC(=O)[O-].[Fe+3] [Fe-NTA]
- Overall total percentage of sulfide reduction [1]: 91%
- Overall total percentage of sulfide reduction ([1]; listed as ferric NTA): 91%
- sulfide remaining ([1]; 5 min contact): 3.40 ppm
- sulfide remaining ([1]; 10 min contact): 1.90 ppm
- sulfide remaining ([1]; 20 min contact): 1.30 ppm
- sulfide reduction after 15 minutes [2]: 70.2%
- Test 1 CFUs/ml 19.8 ppm H2O2 6 ppm Fe-Chelant [3]: 370 CFUs/ml
- Test 2 CFUs/ml 39.6 ppm H2O2 12 ppm Fe-Chelant [3]: 75 CFUs/ml
- Test 3 CFUs/ml 12 ppm Fe-Chelant [3]: 18,300 CFUs/ml

Structure (SMILES): S [HS^−]
- Proportion in dissolved sulfide ([4]; pH 5.0): ~0.01
- Proportion in dissolved sulfide ([4]; pH 6.0): ~0.09
- Proportion in dissolved sulfide ([4]; pH 6.2): ~0.14
- Proportion in dissolved sulfide ([4]; pH 6.4): ~0.20
- Proportion in dissolved sulfide ([4]; pH 6.6): ~0.28
- Proportion in dissolved sulfide ([4]; pH 6.8): ~0.39
- Proportion in dissolved sulfide ([4]; pH 7.0): ~0.50
- Proportion in dissolved sulfide ([4]; pH 7.2): ~0.61
- Proportion in dissolved sulfide ([4]; pH 7.4): ~0.72
- Proportion in dissolved sulfide ([4]; pH 7.6): ~0.80
- Proportion in dissolved sulfide ([4]; pH 7.8): ~0.86
- Proportion in dissolved sulfide ([4]; pH 8.0): ~0.91
- Proportion in dissolved sulfide ([4]; pH 8.2): ~0.941
- Proportion in dissolved sulfide ([4]; pH 8.4): ~0.961
- Proportion in dissolved sulfide ([4]; pH 8.6): ~0.975
- Proportion in dissolved sulfide ([4]; pH 8.8): ~0.986
- Proportion in dissolved sulfide ([4]; pH 9.0): ~0.99

Structure (SMILES): O=O [Oxygen, oxygen]
- Sulfide ([5]; 5 min): 30
- Sulfide ([5]; 10 min): 16
- sulfide reduced ([5]; after 10 minutes of contact): approximately 50%
- Sulfide ([6]; Trial 1, 5 min, control 33, 300 ml flask): 25 mg/L
- Sulfide ([6]; Trial 2, 5 min, control 31): 25 mg/L
- Sulfide ([6]; Trial 2, 22 min, control 31): 1.5 mg/L

Structure (SMILES): O=[O+][O-] [Ozone, ozone, reference compound]
- Overall total percentage of sulfide reduction [1]: 46%
- sulfide remaining ([1]; 5 min contact): 8.05 ppm
- sulfide remaining ([1]; 10 min contact): 7.50 ppm
- sulfide remaining ([1]; 20 min contact): 7.40 ppm

Structure (SMILES): O=[N+]([O-])[O-].[Na+] [sodium nitrate]
- reduction in sewage biological oxygen demand, BOD [7]: ≤ 70%
- dissolved hydrogen sulfide after dosing ([7]; sewage containing over approximately 50 mg/L dissolved hydrogen sulfide): < 0.1 mg/L
